Consider 23 compounds from PubChem BioAssay (NCI).

What all share (test): inhibition of tumour cell growth, NCI panel, 48 h
Test [1] deals with SNB-19 CNS.
Test [2] deals with MDA-MB-231 breast.
Test [3] deals with K-562 leukemia.
In test [4] the test system is HOP-62 NSCLC.
Test [5] relates to SK-MEL-2 melanoma.
Test [6] deals with SK-OV-3 ovarian.
For test [7], the system named is SK-MEL-5 melanoma.
Test [8] deals with SN12C renal.
Test [9] relates to SF-539 CNS.
For test [10], the system named is SR leukemia.

Structures are written as SMILES. Values joined by “and” are separate entries in the source; they are usually repeats but may differ in a detail not shown here. Equal values may be shown once.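 48-hour exposure; five concentrations; linearly interpolated endpoints. The concentration for 50% growth inhibition is given as GI50. TGI: total growth inhibition.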 Where only a bound is given, the exact number is not on record here.

For the compound `C/C=C\C(CC(=O)NCCc1cn(C(=O)OCc2ccccc2)c2ccccc12)CC(=O)OC` (stereo not drawn), the TGI in test [1], in [2], in test [3], in test [4], in test [5] and in [6] was more than 100 µM each time. Moreover, the TGI in test [7] was more than 100 µM.

As to `Nc1cccc2c1C(=O)c1cccc(N)c1C2=O`, the TGI in test [1], in test [8], in test [3], in test [4], in test [9] and in [5] was more than 100 µM throughout. Moreover, the TGI in [6] and in test [7] was more than 100 µM throughout.

`Cn1nc2n(c1=O)CCCN2`: the TGI in test [1], in [8], in test [2], in test [3], in test [4] and in test [9] was more than 100 µM each time. Moreover, the TGI in test [7] and in [10] was more than 100 µM throughout.

For `CC[N+]1(C)CCC(O)(/C=C/c2ccc(OC)cc2)C(C(=O)/C=C/c2ccc(OC)cc2)C1` (stereo not drawn), the TGI in test [1] is 35.6 µM; in [8], more than 58.5 µM; in test [2], more than 53.9 µM; in test [3], 4.5 µM; in [4] it was 42.9 µM; in test [9], more than 45.7 µM. For the same compound, the TGI in test [5] came to 39.7 µM; in test [6], 36.7 µM; in [7], 31.9 µM.

On to `CC(=O)O[C@@H]1C[C@@]23C[C@@]24CC[C@H](OC2OCC(O)C(O)C2O)C(C)(C)[C@@H]4CC=C3[C@]2(C)C[C@@H]3OC4(C[C@@H](C)[C@@H]3[C@@]12C)OC(O)[C@@]1(C)O[C@@H]41` (stereo partly drawn), for which the TGI is more than 100 µM in test [1]; more than 100 µM in test [8]; 44 µM in test [2]; more than 100 µM in test [3]; 78.3 µM in test [4]; 41.4 µM in [9]. Moreover, the TGI was determined as 40.7 µM in test [5], 62.8 µM in [6] and 42.7 µM in test [7].

On to `CN(C)/N=C/c1cn(C)c(=O)n(C)c1=O`, for which the TGI in [1], in test [8], in test [2], in test [3], in test [4] and in test [9] was more than 100 µM in each case. The TGI in test [5], in [6] and in test [7] was more than 100 µM throughout.

Take `Cc1cc(O)c(C(C)C)cc1SC#N`: the TGI in test [2] came out at 37.9 µM; in test [3], 55 µM; in test [4], 38.2 µM; in test [9], 37.1 µM; in test [5] it was 35.7 µM; in test [6], 37.6 µM. For the same compound, the TGI in [7] amounted to 42.7 µM.

Turning to `CCOC(=O)c1c(N2CCCC2)ncn(-c2ccccc2)c1=S`, the TGI in test [1], in test [8], in test [3], in test [4], in [9] and in test [5] was more than 100 µM throughout. Also, the TGI in test [6], in test [7] and in test [10] was more than 100 µM each time.

For the compound `CCc1c(Cc2cccc3ccccc23)n2c(nc1=O)SCC2OCCO` (stereo not drawn), the TGI in test [1], in [8], in test [2], in [3], in test [9] and in test [5] was more than 100 µM in each case. The TGI in test [7] is more than 100 µM; in test [10] it was 89.4 µM.

As for `C/C(=C\c1ccccn1)c1ccccn1`, the TGI in [1], in [2], in test [3], in test [4], in [5] and in test [6] was more than 100 µM in each case. In test [7], the TGI was more than 100 µM.

On to `COC(=O)C1CCC(=O)N1C(=O)Cc1ccc(OC)cc1` (stereo not drawn), for which the TGI in test [1], in [8], in [6] and in test [7] was more than 100 µM in each case.

In the case of `COc1ccc(/C=c2\[nH]c3nc(=O)c(N4CCOCC4)c(N)n3c2=O)cc1`, the TGI in [1], in [8], in test [2], in [3], in test [9] and in test [6] was more than 100 µM in each case. Moreover, the TGI in test [7] and in test [10] was more than 100 µM each time.

As to `c1ccc(CCN2CCc3[nH]c4ccccc4c3C2)cc1`, the TGI came out at 41.8 µM in test [1]; 62.2 µM in [8]; 87.7 µM in [2]; 45.5 µM in test [3]; 45.6 µM in [4]; 40 µM in test [9]. In addition, the TGI in test [6] was more than 100 µM; in test [7], 33.9 µM; in test [10] it was 75.7 µM.

Consider `Clc1ccc(Cc2nc3ccccc3nc2-c2cccc(Br)c2)cc1`, for which the TGI turned out to be 3.14 µM in test [1]; 10.1 µM in test [8]; 14.1 µM in test [2]; 8.46 µM in test [3]; 36.1 µM in test [4]; 5.23 µM in test [9]. The values for the TGI in test [5], in test [6] and in test [7] were 17.8 µM, 31.2 µM and 27.5 µM, respectively.

With `[Cl][Pt+2][Cl].[NH-]C1CCCCC1[NH-]` (stereo not drawn), the TGI was more than 100 µM in test [1]; more than 100 µM in [8]; > 100 µM and 17.8 µM in test [3]; more than 100 µM in test [4]; more than 100 µM in test [9]; > 74.1 µM and > 100 µM and 29.5 µM in [5]. For the same compound, the TGI is more than 100 µM in test [6]; 33 µM and 19.5 µM and 4.39 µM in [7]. In addition, the GI50 in test [8] is 8.78 µM and 6.22 µM and 2.62 µM; in test [4], 53.7 µM and > 100 µM and 22.3 µM; in test [9], 21.6 µM and 6.79 µM and 6.99 µM; in test [5] it was 28.8 µM and 12.8 µM and 3.93 µM; in [6], 18.5 µM and > 80.9 µM and 25.1 µM.

As for `CCOC(=O)c1c(CN2CCNCC2)nc2ccccc2c1-c1ccccc1`, the TGI in test [1] amounted to 33.6 µM; in test [8] it was 28.2 µM; in [2], 29.3 µM; in [3], 27.2 µM; in test [4], 31 µM; in test [9], 34.8 µM. For the same compound, the TGI in [5] amounted to 29.3 µM; in test [6] it was 30.1 µM; in [7] it was 28.5 µM.

On to `OCC1OC(n2cnc3cncnc32)C(O)C1O` (stereo not drawn), for which the TGI in [1] came out at 4.27 µM; in [8] it was 3.97 µM; in test [3], 9.77 µM; in test [4] it was 6.84 µM; in [9], 2.94 µM; in test [5], 3.41 µM. Also, the TGI in test [6] came out at 5.16 µM; in test [7], 3.25 µM.

As for `Cc1ccccc1-n1c(C)nc2c1C(=O)c1ccccc1C2=O`, the TGI in [1], in test [8], in [3], in test [4], in test [9] and in test [5] was more than 100 µM each time. The TGI was 53.7 µM in test [7] and more than 100 µM in test [10].

As to `COc1cc2c(cc1OCCCC(=O)Nc1cc(C(=O)Nc3cc(C(=O)Nc4cc(C(=O)NCCCN(C)C)n(C)n4)n(C)n3)n(C)n1)N=CC1CCCN1C2=O` (stereo not drawn), the TGI in test [1] was 54.4 µM; in [8], 42.3 µM; in test [2], 55.5 µM; in test [3] it was more than 100 µM; in [4], more than 100 µM; in test [9] it was more than 100 µM. The TGI in test [5] is 48 µM; in test [6] it was more than 100 µM; in test [7], 47.4 µM.

As to `CN(C)CCNC(=O)c1ccc(NCCCN(C)CCCNc2ccc3c(=O)n(CCN(C)C)c(=O)n4c5ccccc5c(=O)c2c34)c2c(=O)c3ccccc3[nH]c12`, the TGI came to 0.523 µM in [1]; 0.262 µM in test [8]; 0.234 µM in test [2]; 1.06 µM in [3]; 0.309 µM in test [4]; 2.46 µM in test [9]. Also, the TGI in test [5] is 0.228 µM; in test [6], 0.411 µM; in test [7], 1.22 µM.

Take `Cc1ccc(C(C)(C)C[P+](C)(c2ccccc2)c2ccccc2)cc1`: the TGI in test [1] was 89.3 µM; in test [8] it was more than 86.3 µM; in test [3] it was 46 µM; in [4], 75.9 µM; in test [9], more than 100 µM; in test [5], 19.7 µM. Also, the values for the TGI in [6] and in [7] were 64.2 µM and 12.7 µM, respectively.

Turning to `Cc1ccc(S(=O)(=O)NNC(=O)c2cc(C)ccc2NC(=O)C23CC4CC(CC(C4)C2)C3)cc1`, the TGI was 57.2 µM in test [1]; more than 100 µM in test [8]; more than 100 µM in [2]; more than 100 µM in [3]; more than 100 µM in [4]; more than 100 µM in [9]. The results for the TGI in test [6], in [7] and in test [10] were 68.5 µM, more than 100 µM and more than 100 µM, respectively.

As for `Cc1ccc(C2=NOC(=O)[C@@H]3CCCC[C@@H]23)cc1`, the TGI in test [1], in test [8], in [2], in test [3], in test [4] and in test [9] was more than 100 µM each time. The TGI in [6], in test [7] and in [10] was more than 100 µM throughout.
